Measurements reported in patent publication US11433057B2, “Method for improving or enhancing cognition” (VANDA PHARMACEUTICALS INC., priority 2016, dated 2022).

Key:
Format in all cases: in vivo, human
[1] = test system: patients with findings consistent with mild AD or amnestic MCI; assay: CANTAB Paired Associates Learning (PAL), 4-week placebo-controlled study; settings: 15 mg daily oral, study day 1
Procedure: (§1) The following example illustrates the methods of the invention, in which a 4-week, parallel-group, randomized, double-blind, placebo-controlled, adaptive proof of concept study of AQW051 at up to three dose levels for the treatment of patients with findings consistent with mild Alzheimer's disease (AD) or Mild Cognitive Impairment (amnestic MCI) was conducted in two stages.
(§2) To assess AQW051 as a cognitive enhancer, as measured by selected tests [Paired Associates Learning (PAL), Spatial Working Memory (SWM), Rapid Visual Information Processing (RVP)] from the Cambridge Neuropsychological Test Automated Battery (CANTAB) computerized cognitive test battery, in patients with findings consistent with mild AD or amnestic MCI.
(§3) The investigational drug AQW51 was provided as either 0.5 mg, 5 mg, or 25 mg capsules. In stage I only 5 mg capsules were used. All groups received 15 mg of AQW051 daily for 4 weeks.
(§4) On Day 1, 8, 15, 22 and 28, the study drug was administered by study personnel and was taken orally with 240 ml of water after light breakfast. On all other study treatment days, patients self-administered the study medication in the morning after light breakfast.
(§5) The different CANTAB readouts were analyzed separately by rank analyses of covariance, including “treatment” and “stratum” (MCI, AD) as fixed effects and the corresponding baseline value as covariate. The comparison of interest was the contrast between active treatment and placebo; tests were performed to the one-sided 10% level without multiplicity-adjustment. Point and interval estimates were produced by the baseline-adjusted stratified Hodges-Lehmann method. In addition, sensitivity analyses were performed using standard analyses of covariance, to complement the aforementioned nonparametric methods. The items “errors at the 6 pattern stage” and “total trials adjusted” of the PAL task at day 28 played a key role at the interim analysis. At the end of stage 1, the conditional power of the study to reach an overall significant result in both these key endpoints at the final analysis was estimated by bootstrap methods. The different scores from the ADAS-Cog, QoL-AD, the DAD and the MMSE were analyzed using standard analyses of covariance. Safety and tolerability variables measures were analyzed by means of descriptive statistics.

[2] = test system: patients with findings consistent with mild AD or amnestic MCI; assay: CANTAB Spatial Working Memory (SWM), 4-week placebo-controlled study; settings: 15 mg daily oral, study day 28
Procedure: as §1, §2, §3, §4, §5

[3] = test system: patients with findings consistent with mild AD or amnestic MCI; assay: CANTAB Rapid Visual Information Processing (RVP), 4-week placebo-controlled study; settings: 15 mg daily oral, study day 1
Procedure: as §1, §2
The investigational drug AQW51 was provided as either 0.5 mg, 5 mg, or 25 mg capsules. In stage I only 5 mg capsules were used. All groups received 15 mg of AQW051 daily for 4 weeks. […]
(§6) The different CANTAB readouts were analyzed separately by rank analyses of covariance, including “treatment” and “stratum” (MCI, AD) as fixed effects and the corresponding baseline value as covariate. […] The different scores from the ADAS-Cog, QoL-AD, the DAD and the MMSE were analyzed using standard analyses of covariance. Safety and tolerability variables measures were analyzed by means of descriptive statistics.

[4] = test system: patients with findings consistent with mild AD or amnestic MCI; assay: CANTAB Choice Reaction Time (CRT), 4-week placebo-controlled study; settings: 15 mg daily oral, study day 28
Procedure: as §1
(§7) To explore effects of AQW051 on other cognitive functions not assessed by the primary measures (CANTAB tests Pattern Recognition Memory (PRM), Choice Reaction Time (CRT), Graded Naming Test-Revised (GNT).
as §3, §4, §5

[5] = test system: patients with findings consistent with mild AD or amnestic MCI; assay: CANTAB Graded Naming Test-Revised (GNT), 4-week placebo-controlled study; settings: 15 mg daily oral; study day 28; PD analysis set N=54; p=0.8191
Procedure: as §1, §7, §3
On Day 1, 8, 15, 22 and 28, the study drug was administered by study personnel and was taken orally with 240 ml of water after light breakfast. […]
as §6

[6] = test system: patients with findings consistent with mild AD or amnestic MCI; assay: CANTAB Pattern Recognition Memory (PRM), 4-week placebo-controlled study; settings: 15 mg daily oral, study day 28, PD analysis set N=54
Procedure: as §1, §7, §3, §4, §5

[7] = test system: patients with findings consistent with mild AD or amnestic MCI; assay: Adverse events, safety analysis set, 4-week placebo-controlled study; settings: 15 mg daily oral, 4 weeks
Procedure: as §1
To explore the safety and tolerability of AQW051 in patients with findings consistent with mild AD or amnestic MCI.
as §3, §4, §5
Under one treatment, a subject with multiple occurrences of an adverse event is counted only once in the AE category. N=number of subject studied; n=number of subjects with at least 1 AE in the category. Only adverse events occurring at or after first drug intake are included.

## Cc1ccc(-c2ccc(O[C@H]3CN4CCC3CC4)cn2)cc1 [AQW051, (R)-3-(6-p-tolyl-pyridin-3-yloxy)-1-aza-bicyclo[2.2.2]octane]
[1]; MCI patient only N=38, p=0.0239
  PAL of total errors (2 shapes adj), Difference AQW051 15 mg vs. Placebo: 0
[1]; MCI patient only N=38, p=0.0877
  PAL total trials (adj), Difference AQW051 15 mg vs. Placebo: −1.5
[1]; all patients N=54, p=0.0142
  PAL total errors (2 shapes adj), Difference AQW051 15 mg vs. Placebo: 0
[1]; all patients N=54, p=0.0840
  PAL total errors (6 shapes adj), Difference AQW051 15 mg vs. Placebo: −2
[1]; all patients N=54, p=0.0846
  PAL total trials (adj), Difference AQW051 15 mg vs. Placebo: −1
[2]; MCI patient only N=38, p=0.0290
  SWM Between errors (6 boxes), Difference AQW051 15 mg vs. Placebo: −2.5
[2]; MCI patient only N=38, p=0.0845
  SWM Between errors, Difference AQW051 15 mg vs. Placebo: −5
[2]; all patients N=54, p=0.0430
  SWM Between errors (6 boxes), Difference AQW051 15 mg vs. Placebo: −2
[2]; all patients N=54, p=0.0701
  SWM Between errors, Difference AQW051 15 mg vs. Placebo: −3.5
[2]; all patients N=54, p=0.0866
  SWM Between errors (4 boxes), Difference AQW051 15 mg vs. Placebo: −0.5
[3]; MCI patient only N=38, p=0.0419
  RVP Mean latency, Difference AQW051 15 mg vs. Placebo: −22
[3]; all patients N=54, p=0.0292
  RVP Mean latency, Difference AQW051 15 mg vs. Placebo: −21.5
[4]; MCI patient only N=38, p=0.0918
  CRT Percent correct trials, Difference AQW051 15 mg vs. Placebo: 0.5
[4]; MCI patient only N=38, p=0.0966
  CRT Median latency, Difference, AQW051 15 mg vs. placebo: −23
[4]; PD analysis set N=54, p=0.3273
  CRT Median latency, Difference, AQW051 15 mg vs. placebo: −9.5
[4]; all patients N=54, p=0.0632
  CRT Percent correct trials, Difference AQW051 15 mg vs. Placebo: 0.5
[5]
  GNT Total correct, Difference, AQW051 15 mg vs. placebo: −1.5
[6]; p=0.4244
  PRM Percent correct delayed, Difference, AQW051 15 mg vs. placebo: 0
[6]; p=0.7864
  PRM Mean correct latency delayed, Difference, AQW051 15 mg vs. placebo: 150 ms
[6]; p=0.8090
  PRM Percent correct immediate, Difference, AQW051 15 mg vs. placebo: −4
[6]; p=0.8328
  PRM Mean correct latency immediate, Difference, AQW051 15 mg vs. placebo: 198 ms
[7]; AD N = 7
  Flatulence related to study drug, (%): 14.3%
  Patients with AE(s) related to study drug, (%): 14.3%
[7]; MCI N = 20
  Constipation related to study drug, (%): 5.0%
  Dysgraphia related to study drug, (%): 5.0%
  Headache related to study drug, (%): 10.0%
  Increased tendency to bruise related to study drug, (%): 5.0%
  Muscle spasms related to study drug, (%): 5.0%
  Pain in extremity related to study drug, (%): 5.0%
  Patients with AE(s) related to study drug, (%): 15.0%
  Pruritus related to study drug, (%): 5.0%
[7]; N = 27
  Bronchitis AE, (%) of subjects: (3.7) %
  Bronchitis AE, n of subjects: 1
  Chalazion AE, (%) of subjects: (3.7) %
  Chalazion AE, n of subjects: 1
  Constipation AE, (%) of subjects: (3.7) %
  Constipation AE, n of subjects: 1
  Dysgraphia AE, (%) of subjects: (3.7) %
  Dysgraphia AE, n of subjects: 1
  Ear and Labyrinth disorders AEs, (%) of subjects: (3.7) %
  Ear and Labyrinth disorders AEs, n of subjects: 1
  Epistaxis AE, (%) of subjects: (3.7) %
  Epistaxis AE, n of subjects: 1
  Eye disorders AEs, (%) of subjects: (3.7) %
  Eye disorders AEs, n of subjects: 1
  Flatulence AE, (%) of subjects: (3.7) %
  Flatulence AE, n of subjects: 1
  Gastrointestinal disorders AEs, (%) of subjects: (7.4) %
  Gastrointestinal disorders AEs, n of subjects: 2
  Headache AE, (%) of subjects: (7.4) %
  Headache AE, n of subjects: 2
  Hepatic function abnormal AE, (%) of subjects: (3.7) %
  Hepatic function abnormal AE, n of subjects: 1
  Hepatobiliary disorders AEs, (%) of subjects: (3.7) %
  Hepatobiliary disorders AEs, n of subjects: 1
  Increased tendency to bruise AE, (%) of subjects: (3.7) %
  Increased tendency to bruise AE, n of subjects: 1
  Infections and infestations AEs, (%) of subjects: (11.1) %
  Infections and infestations AEs, n of subjects: 3
  Laryngitis AE, (%) of subjects: (3.7) %
  Laryngitis AE, n of subjects: 1
  Muscle spasms AE, (%) of subjects: (3.7) %
  Muscle spasms AE, n of subjects: 1
  Musculoskeletal and connective tissue disorders AEs, (%) of subjects: (7.4) %
  Musculoskeletal and connective tissue disorders AEs, n of subjects: 2
  Nasopharyngitis AE, (%) of subjects: (3.7) %
  Nasopharyngitis AE, n of subjects: 1
  Nervous system disorders AEs, (%) of subjects: (7.4) %
  Nervous system disorders AEs, n of subjects: 2
  Pain in extremity AE, (%) of subjects: (7.4) %
  Pain in extremity AE, n of subjects: 2
  Patients with AEs, (%) of subjects: (40.7) %
  Patients with AEs, n of subjects: 11
  Pruritus AE, (%) of subjects: (3.7) %
  Pruritus AE, n of subjects: 1
  Respiratory, thoracic and mediastinal disorders AEs, (%) of subjects: (3.7) %
  Respiratory, thoracic and mediastinal disorders AEs, n of subjects: 1
  Skin and subcutaneous disorders AEs, (%) of subjects: (7.4) %
  Skin and subcutaneous disorders AEs, n of subjects: 2
  Skin lesion AE, (%) of subjects: (3.7) %
  Skin lesion AE, n of subjects: 1
  Tympanic membrane perforation AE, (%) of subjects: (3.7) %
  Tympanic membrane perforation AE, n of subjects: 1
[7]; Total N = 27
  Constipation related to study drug, (%): 3.7%
  Dysgraphia related to study drug, (%): 3.7%
  Flatulence related to study drug, (%): 3.7%
  Headache related to study drug, (%): 7.4%
  Increased tendency to bruise related to study drug, (%): 3.7%
  Muscle spasms related to study drug, (%): 3.7%
  Pain in extremity related to study drug, (%): 3.7%
  Patients with AE(s) related to study drug, (%): 14.8%
  Pruritus related to study drug, (%): 3.7%
